Experiments:
[1] = tested on: allergic airway inflammation; assay: mouse model of allergic airway inflammation (OVA/Alum sensitization, OVA aerosol challenge): BAL cells and lung sections; type: in vivo, mouse (BALB/c)
Method: Female BALB/c mice (Charles River, Sulzfeld, Germany) aged 7-8 weeks were used and acclimated to the animal facility for 14 days prior to experiments. Animals had access to food and water ad libitum. All experimental procedures were approved by the responsible animal ethics committees. Mice were sensitized by intraperitoneal injection of 20 μg ovalbumin (OVA; GradeV; Sigma, St. Louis, Mo.) emulsified in 2.2 mg aluminum hydroxide (ImjectAlum; Pierce, Rockford, Ill.) in a total volume of 200 μl on days 1 and 14. On days 28 and 38 mice were challenged via the airways with 1% OVA aerosol for 20 min using a PARI-Boy aerosol generator. Mice were treated with the synthetic substances during the sensitization phase. Substances were administered intranasally in 50 μl of PBS. Mice were treated 14 times beginning on the day of the first OVA injection and the last treatment six days before the second OVA-aerosol challenge. Control groups were sensitized as described above and treated 14 times with phosphate buffered saline (PBS). Three days after OVA challenge lungs were lavaged via a tracheal tube with 2×1 ml PBS, and leukocytes in the lavage fluid were counted. After centrifugation, BAL fluid was frozen for further analysis. […] The percentages of eosinophils, lymphocytes and macrophages in BAL samples were determined by light microscopy. […]

[2] = tested on: IL-5 and IL-13 production by spleen cells; assay: in vitro cytokine production (IL-5, IL-13) of mouse splenocytes re-stimulated with OVA after in vivo treatment; parameters: species or system mouse (BALB/c); settings: FIG. 3, i.n. treatment during sensitization and challenge
Method: (§1) Mice were sensitized by intraperitoneal injection of 20 μg ovalbumin (OVA; GradeV; Sigma, St. Louis, Mo.) emulsified in 2.2 mg aluminum hydroxide (ImjectAlum; Pierce, Rockford, Ill.) in a total volume of 200 μl on days 1 and 14. On days 28 and 38 mice were challenged via the airways with 1% OVA aerosol for 20 min using a PARI-Boy aerosol generator.
(§2) Mice were treated with the synthetic substances during the sensitization phase. Substances were administered intranasally in 50 μl of PBS. Mice were treated 14 times beginning on the day of the first OVA injection and the last treatment six days before the second OVA-aerosol challenge. Control groups were sensitized as described above and treated 14 times with phosphate buffered saline (PBS).
Spleens were harvested 3 days after the second aerosol challenge. Single cell suspensions were prepared by mechanical disruption and erythrocytes were lysed. Spleen cells were then cultured at a concentration of 5×10^6/ml in complete tissue culture medium (CTCM) (RPMI 1640 with 10% fetal calf serum (FCS), 2 mM L-glutamine, 100 U/ml penicillin, 100 μg/ml streptomycin, all from Biochrom, Berlin, Germany). To stimulate specific cytokine production OVA was added to a final concentration of 50 μg/ml. […] Levels of IL-5 and IL-13 were assessed by using optEIA kits (BD Biosciences, Heidelberg, Germany) according to the manufacturer's instructions.

[3] = tested on: IgE; assay: total IgE in BAL fluid by ELISA in OVA/Alum mouse model; type: in vivo, mouse (BALB/c); settings: FIG. 3, i.n. treatment
Method: as §1, §2
Blood was collected by tail vein puncture two days after the second aerosol challenge. BAL was collected as described above. Levels of total IgE in serum or BAL fluid were determined by ELISA (Ebioscience). Levels of BSA-specific IgG1 were determined by indirect ELISA. Briefly, plates were coated with 50 μg/ml BSA followed by blocking with 1% low fat milk powder. The serum was diluted 1/100 in PBS and incubated on the BSA coated wells for 1 h, followed by detection of bound antibodies by alkaline phosphatase coupled rat anti mouse IgG1 (BDbiosciences).

## OCC1O[C@@H](OCC2O[C@@H](OCC3O[C@@H](OCCCCCc4ccc(N=C=S)cc4)C(O)C(O)[C@H]3O)C(O)C(O[C@H]3O[C@@H](CO[C@@H]4O[C@@H](CO)C(O)C4O)C(O)C3O)[C@H]2O)C(O)C(O)[C@H]1O (stereo partly shown) [Araf2Galp3]
[1]; FIG. 3, i.n. treatment, BAL
  eosinophilic airway inflammation: not able to reduce these parameters significantly
[1]; FIG. 3 experiment, determined in lung sections
  goblet cell metaplasia: not able to reduce these parameters significantly
[2]
  Th2 response as measured by in vitro production of IL-5 and IL-13 by spleen cells: not able to reduce these parameters significantly
[3]
  IgE production: not able to reduce these parameters significantly

Source: patent publication US11179407B2, “Method for synthetically producing arabinogalactan compounds derived from plants and uses of said compounds for the prophylaxis of allergic reactions” (Forschungszentrum Borstel Leibniz-Zentrum für Medizin und …, priority 2015, dated 2021)
